Assay: molar heat capacity at saturation pressure

c1ccc2c(c1)CCC2 [indane]
molar heat capacity [J/K/mol]
Conditions	Crystal 1, Vacuum adiabatic calorimetry	Crystal 2, Vacuum adiabatic calorimetry
5 K	–	0.291
5.31 K	–	0.3492
6.26 K	–	0.6236
7.189 K	–	0.9811
8.165 K	–	1.463
9.174 K	–	2.12
10 K	–	2.735
10.22 K	–	2.918
11.36 K	–	3.891
12.63 K	–	5.097
14.04 K	–	6.61
15.6 K	–	8.364
17.35 K	–	10.43
19.29 K	–	12.76
20 K	–	13.61
21.45 K	–	15.35
23.86 K	–	18.19
26.55 K	–	21.27
29.53 K	–	24.47
30 K	–	24.96
32.82 K	–	27.82
36.45 K	–	31.27
40 K	–	34.44
40.47 K	–	34.84
44.94 K	–	38.64
49.87 K	–	42.67
50 K	–	42.77
52.71 K	–	44.96
55.33 K	–	47.14
57.68 K	–	49.16
60 K	–	51.24
62 K	–	53.22
62.18 K	–	53.45
62.48 K	–	53.74
63.41 K	–	54.75
64 K	–	55.47
66 K	–	57.83
67.11 K	–	59.51
68 K	–	60.76
70 K	–	64.04
70.7 K	–	67.01
70.76 K	–	67.17
72 K	–	67.68
72.08 K	–	72.89
72.27 K	–	74.46
72.75 K	–	77.96
73.08 K	–	82.15
73.38 K	–	89.8
73.83 K	57.49	71.43
74 K	57.55	–
74.14 K	63.18	–
74.52 K	59.93	–
74.89 K	59.45	–
76 K	58.28	–
76.02 K	59.19	–
77.68 K	59.3	–
78 K	59.01	–
79.98 K	59.88	–
80 K	59.74	–
82.01 K	60.53	–
82.05 K	60.55	–
82.97 K	60.84	–
83.17 K	60.91	–
90 K	63.39	–
91.46 K	63.9	–
100 K	67.07	–
100.48 K	67.26	–
110.07 K	70.8	–
119.85 K	74.38	–
120 K	74.45	–
129.73 K	78.16	–
138.66 K	81.54	–
139.61 K	81.94	–
140 K	82.06	–
148.52 K	85.42	–
158.5 K	89.5	–
160 K	90.14	–
168.63 K	93.87	–
178.81 K	98.43	–
180 K	99	–
184.22 K	100.9	–
189.01 K	103.32	–
194.75 K	106.22	–
199.29 K	108.5	–
200 K	108.89	–
205.19 K	111.62	–
209.54 K	113.96	–
212.42 K	115.59	–
214.32 K	116.35	–
220 K	119.51	–
221.79 K	120.47	–

Liquid
Conditions	molar heat capacity [J/K/mol]
221.79 K, Vacuum adiabatic calorimetry	163.91
228.22 K, Vacuum adiabatic calorimetry	165.72
228.34 K, Vacuum adiabatic calorimetry	165.76
229.69 K, Vacuum adiabatic calorimetry	166.13
229.78 K, Vacuum adiabatic calorimetry	166.24
230 K, Vacuum adiabatic calorimetry	166.22
236.45 K, Vacuum adiabatic calorimetry	168.04
238.81 K, Vacuum adiabatic calorimetry	168.76
240 K, Vacuum adiabatic calorimetry	169.13
250 K, Vacuum adiabatic calorimetry	172.31
250.13 K, Vacuum adiabatic calorimetry	172.35
260 K, Vacuum adiabatic calorimetry	175.75
262.1 K, Vacuum adiabatic calorimetry	176.48
262.28 K, Vacuum adiabatic calorimetry	176.54
270 K, Vacuum adiabatic calorimetry	179.48
274.49 K, Vacuum adiabatic calorimetry	181.2
275.32 K, Vacuum adiabatic calorimetry	181.5
280 K, Vacuum adiabatic calorimetry	183.04
286.77 K, Vacuum adiabatic calorimetry	185.35
288.6 K, Vacuum adiabatic calorimetry	185.93
290 K, Vacuum adiabatic calorimetry	186.46
297.89 K, Vacuum adiabatic calorimetry	189.38
298.15 K, Vacuum adiabatic calorimetry	189.48
299.11 K, Vacuum adiabatic calorimetry	189.82
300 K, Vacuum adiabatic calorimetry	190.18
301.9 K, Vacuum adiabatic calorimetry	190.91
310 K, Vacuum adiabatic calorimetry	194.12
310.2 K, Vacuum adiabatic calorimetry	194.19
311.46 K, Vacuum adiabatic calorimetry	194.67
320 K, Vacuum adiabatic calorimetry	198.07
322.46 K, Vacuum adiabatic calorimetry	199.08
330 K, Vacuum adiabatic calorimetry	202.15
333.38 K, Vacuum adiabatic calorimetry	203.54
334.63 K, Vacuum adiabatic calorimetry	204.04
340 K, Vacuum adiabatic calorimetry	206.3
347.49 K, Vacuum adiabatic calorimetry	209.45
350 K, Vacuum adiabatic calorimetry	210.48
360 K, Vacuum adiabatic calorimetry	214.61
360.87 K, Vacuum adiabatic calorimetry	214.96
370 K, Vacuum adiabatic calorimetry	218.8
374.71 K, Vacuum adiabatic calorimetry	220.8
380 K, Vacuum adiabatic calorimetry	223.03
388.61 K, Vacuum adiabatic calorimetry	226.66
390 K, Vacuum adiabatic calorimetry	227.25
400 K, Vacuum adiabatic calorimetry	231.47
402.42 K, Vacuum adiabatic calorimetry	232.49
409.24 K, Vacuum adiabatic calorimetry	235.36
410 K, Vacuum adiabatic calorimetry	235.68
415.99 K, Vacuum adiabatic calorimetry	238.21
420 K, Vacuum adiabatic calorimetry	239.88
426.54 K, Vacuum adiabatic calorimetry	242.6
428.9 K, Vacuum adiabatic calorimetry	243.53
430 K, Vacuum adiabatic calorimetry	244.05
439.86 K, Vacuum adiabatic calorimetry	248.28
440 K, Vacuum adiabatic calorimetry	248.4
450 K, Small sample (50 mg) DSC	253.17
460 K, Small sample (50 mg) DSC	258.04
470 K, Small sample (50 mg) DSC	262.7
480 K, Small sample (50 mg) DSC	267.2
490 K, Small sample (50 mg) DSC	271.71
500 K, Small sample (50 mg) DSC	276.21
510 K, Small sample (50 mg) DSC	280.72
520 K, Small sample (50 mg) DSC	285.23
530 K, Small sample (50 mg) DSC	289.72
540 K, Small sample (50 mg) DSC	294.22
550 K, Small sample (50 mg) DSC	298.7
560 K, Small sample (50 mg) DSC	303.18
570 K, Small sample (50 mg) DSC	307.65
580 K, Small sample (50 mg) DSC	312.12
590 K, Small sample (50 mg) DSC	316.59
600 K, Small sample (50 mg) DSC	321.05
